Test results as given in patent US20260234164A1, “BIPHENYL COMPOUND AS IMMUNOMODULATOR, PREPARATION METHOD THEREFOR AND USE THEREOF” (SHENZHEN CHIPSCREEN BIOSCIENCES CO., LTD., priority 2021, published 2026).

Molecular target: T1, PD-1/PD-L1 binding (Homo sapiens, UniProt Q9NZQ7)
T1 construct: purchased Sino Biological Inc. 10084-H02H-100 (PD-L1-Fc); 10377-H08H-50 (His-PD-1)
Assay: HTRF inhibition of PD-1/PD-L1 binding in vitro
Conditions: His-PD-1 100 nM, PD-L1-Fc 2 nM, read-out: IC50 inhibiting PD-1/PD-L1 binding in vitro
Source text: Homogeneous Time-Resolved Fluorescence (HTRF): This method used the recombinant human PD-L1 protein fused to express the hFc tag and the recombinant human PD-1 protein fused to express the His tag, both of which were interacting ligands and receptors. When the anti-hFc antibody containing Eu element chelation marker and the anti-His antibody labeled with XL665 fluorescein were bound with the above two corresponding labels, and excited by a laser with a wavelength of 320 nm, the ligand-receptor binding enabled the energy to be transferred from the Eu element to the XL665 fluorescein, which was excited to emit light at a wavelength of 665 nm. However, when an inhibitor of the interaction between PD-L1 and PD-1 was added, the binding of the ligand to the receptor was destroyed, so that the distance between Eu and XL665 was far away, the energy cannot be transferred, and XL665 would not be excited.
Recombinant human PD-1 protein with His tag (His-PD-1 protein, Cat #: 10377-H08H-50), and recombinant human PD-L1-Fc fusion protein (PD-L1-Fc fusion protein, Cat #: 10084-H02H-100) were purchased from Sino Biological Inc., […] and anti-His-XL665 antibody were purchased from Cisbio Company, and other related reagents such as dilution buffer (Diluent buffer 5, Cat #: 62DL5DDC), detection buffer (PPI-Europium detection buffer, Cat #: 61DB9RDF) were purchased from Cisbio Company. Fluorescence detection instrument Tecan (Spark 10 M) was purchased from Switzerland Tecan Company.
(1) Experimental preparation: The test compound was diluted with dilution buffer into different concentration gradients (the highest final concentration in 20 μL final reaction system was 10 μM), His-PD-1 protein was diluted to 800 nM (the final concentration in 20 μL final reaction system was 100 nM), and the PD-L1-Fc fusion protein was diluted to 16 nM (final concentration was 2 nM). The anti-His-XL665 antibody and anti-hFc-Eu^3+ antibody were respectively diluted 20 times and 100 times using the detection buffer according to the reagent requirements.
(2) 5 μL of test compound, 2.5 μL of PD-L1-Fc fusion protein and 2.5 μL of His-PD-1 protein solution were mixed, and incubated at room temperature for 15 min. Then the system was added with 5 μL of anti-His-XL665 antibody and 5 μL of anti-hFc-Eu^3+ antibody, incubated for another 3 h, and then detected.
(3) When detecting the reaction, a control group was also provided, including a 0% inhibition positive control without adding test compounds and a 100% inhibition negative control without adding PD-1 protein. All detections were performed with duplicates.
(4) The fluorescence signal of each well was measured using a fluorescence detector Tecan (Spark 10M) at an excitation wavelength of 320 nm, and emission wavelengths of 620 nm and 665 nm, respectively. The intensity of the mutual binding of PD-1 and PD-L1 referred to the ratio of fluorescence signals Em665/Em620.
(5) The binding inhibition rate of the test compound was calculated as follows: Inhibition rate (%)=[1−(Fluorescence signal ratio of detection well-fluorescence signal ratio of 100% inhibition negative control)]/(fluorescence signal ratio of 0% inhibition positive control-fluorescence signal ratio of 100% inhibition negative control)×100%. After calculating the inhibition rate on PD-1/PD-L1 binding of the test compounds with different concentration gradients, the 50% inhibitory concentration (IC50) was calculated.

T1 sequence (Q9NZQ7 19-239 limits assumed): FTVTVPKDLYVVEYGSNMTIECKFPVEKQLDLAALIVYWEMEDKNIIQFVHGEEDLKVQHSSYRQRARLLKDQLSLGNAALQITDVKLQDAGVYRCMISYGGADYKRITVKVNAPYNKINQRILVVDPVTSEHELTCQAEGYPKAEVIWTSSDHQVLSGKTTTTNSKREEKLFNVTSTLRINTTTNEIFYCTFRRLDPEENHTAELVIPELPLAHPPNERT

Row | Structure (SMILES) | IC50
1 | [2H]C([2H])([2H])OCC12CCC(CCN3CCc4c(nc(C(=O)Nc5cccc(-c6cccc(NC(=O)c7nc8c(n7C)CCN(CCC79CCC(C(=O)O)(CC7)C9)C8)c6Cl)c5Cl)n4C)C3)(CC1)C2 [Compound I-1, 4-(2-(2-((2,2′-dichloro-3′-(5-(2-(4-((methoxy-d3)methyl)bicyclo[2.2.1]heptane-1-yl)ethyl)-1-methyl-4,5,6,7-tetrahydro-1H-imidazo[4,5-c]pyridine-2-carboxamido)-[1,1′-biphenyl]-3-yl)carbamoyl)-1-methyl-1,4,6,7-tetrahydro-5H-imidazo[4,5-c]pyridin-5-yl)ethyl)bicyclo[2.2.1]heptane-1-carboxylic acid] | 0.72 nM
2 | [2H]C([2H])([2H])n1c(C(=O)Nc2cccc(-c3cccc(NC(=O)c4nc5c(n4C([2H])([2H])[2H])CCN(CCC46CCC(COC)(CC4)C6)C5)c3Cl)c2C)nc2c1CCN(CCC13CCC(C(=O)O)(CC1)C3)C2 [Compound I-12, 4-(2-(2-((2′-chloro-3′-(5-(2-(4-(methoxymethyl)bicyclo[2.2.1]heptane-1-yl)ethyl)-1-(methyl-d3)-4,5,6,7-tetrahydro-1H-imidazo[4,5-c]pyridine-2-carboxamido)-2-methyl-[1,1′-biphenyl]-3-yl)carbamoyl)-1-(methyl-d3)-1,4,6,7-tetrahydro-5H-imidazo[4,5-c]pyridin-5-yl)ethyl)bicyclo [2.2.1]heptane-1-carboxylic acid] | 3.8 nM
3 | [2H]C([2H])([2H])OCC12CCC(CCN3CCc4c(nc(C(=O)Nc5cccc(-c6cccc(NC(=O)c7nc8c(n7C([2H])([2H])[2H])CCN(CCC79CCC(C(=O)O)(CC7)C9)C8)c6Cl)c5F)n4C([2H])([2H])[2H])C3)(CC1)C2 (single isomer, unassigned) [Compound I-7, 4-(2-(2-((2-chloro-2′-fluoro-3′-(5-(2-(4-((methoxy-d3)methyl)bicyclo[2.2.1]heptane-1-yl)ethyl)-1-(methyl-d3)-4,5,6,7-tetrahydro-1H-imidazo[4,5-c]pyridine-2-carboxamido)-[1,1′-biphenyl]-3-yl)carbamoyl)-1-(methyl-d3)-1,4,6,7-tetrahydro-5H-imidazo[4,5-c]pyridin-5-yl)ethyl)bicyclo[2.2.1]heptane-1-carboxylic acid] | 1.38 nM
4 | [2H]c1c([2H])c(NC(=O)c2nc3c(n2C([2H])([2H])[2H])CCN(CCC24CCC(COC([2H])([2H])[2H])(CC2)C4)C3)c(Cl)c(-c2c([2H])c([2H])c([2H])c(NC(=O)c3nc4c(n3C([2H])([2H])[2H])CCN(CCC35CCC(C(=O)O)(CC3)C5)C4)c2Cl)c1[2H] [Compound I-13, 4-(2-(2-((2,2′-dichloro-3′-(5-(2-(4-((methoxy-d3)methyl)bicyclo[2.2.1]heptane-1-yl)ethyl)-1-(methyl-d3)-4,5,6,7-tetrahydro-1H-imidazo[4,5-c]pyridine-2-carboxamido)-[1,1′-biphenyl]-3-yl-4,4′, 5,5′,6,6′-d6)carbamoyl)-1-(methyl-d3)-1,4,6,7-tetrahydro-5H-imidazo[4,5-c]pyridin-5-yl)ethyl)bicyclo[2.2.1]heptane-1-carboxylic acid] | 1.23 nM
5 | [2H]C([2H])([2H])OCC12CCC(CCN3CCc4c(nc(C(=O)Nc5cccc(-c6cccc(NC(=O)c7nc8c(n7C)CCN(CCC79CCC(C(=O)O)(CC7)C9)C8)c6Cl)c5F)n4C)C3)(CC1)C2 (single isomer, unassigned) [Compound I-2, 4-(2-(2-((2-chloro-2′-fluoro-3′-(5-(2-(4-((methoxy-d3)methyl)bicyclo[2.2.1]heptane-1-y 1)ethyl)-1-methyl-4,5,6,7-tetrahydro-1H-imidazo[4,5-c]pyridine-2-carboxamido)-[1,1′-biphenyl]-3-yl)carbamoyl)-1-methyl-1,4,6,7-tetrahydro-5H-imidazo[4,5-c]pyridin-5-yl)ethyl)bicyclo[2.2.1]heptane-1-carboxylic acid] | 1.52 nM
6 | [2H]C([2H])([2H])n1c(C(=O)Nc2cccc(-c3cccc(NC(=O)c4nc5c(n4C([2H])([2H])[2H])CCN(CCC46CCC(C(=O)O)(CC4)C6)C5)c3Cl)c2F)nc2c1CCN(CCC13CCC(COC)(CC1)C3)C2 (single isomer, unassigned) [Compound I-8, 4-(2-(2-((2-chloro-2′-fluoro-3′-(5-(2-(4-(methoxymethyl)bicyclo[2.2.1]heptane-1-yl)ethyl)-1-(methyl-d3)-4,5,6,7-tetrahydro-1H-imidazo[4,5-c]pyridine-2-carboxamido)-[1,1′-biphenyl]-3-yl)carbamoyl)-1-(methyl-d3)-1,4,6,7-tetrahydro-5H-imidazo[4,5-c]pyridin-5-yl)ethyl)bicyclo[2.2.1]heptane-1-carboxylic acid] | 1.63 nM
7 | [2H]C([2H])([2H])OCC12CCC(CCN3CCc4c(nc(C(=O)Nc5cccc(-c6cccc(NC(=O)c7nc8c(n7C([2H])([2H])[2H])CCN(CCC79CCC(C(=O)O)(CC7)C9)C8)c6Cl)c5C)n4C([2H])([2H])[2H])C3)(CC1)C2 [Compound I-9, 4-(2-(2-((2-chloro-3′-(5-(2-(4-((methoxy-d3)methyl)bicyclo[2.2.1]heptane-1-yl)ethyl)-1-(methyl-d3)-4,5,6,7-tetrahydro-1H-imidazo[4,5-c]pyridine-2-carboxamido)-2′-methyl-[1,1′-biphenyl]-3-yl)carbamoyl)-1-(methyl-d3)-1,4,6,7-tetrahydro-5H-imidazo[4,5-c]pyridin-5-yl)ethyl)bicyclo[2.2.1]heptane-1-carboxylic acid] | 3.77 nM
8 | [2H]C([2H])([2H])OCC12CCC(CCN3CCc4c(nc(C(=O)Nc5cccc(-c6cccc(NC(=O)c7nc8c(n7C([2H])([2H])[2H])CCN(CCC79CCC(C(=O)O)(CC7)C9)C8)c6Cl)c5Cl)n4C([2H])([2H])[2H])C3)(CC1)C2 [Compound I-5, 4-(2-(2-((2,2′-dichloro-3′-(5-(2-(4-((methoxy-d3)methyl)bicyclo[2.2.1]heptane-1-yl)ethyl)-1-(methyl-d3)-4,5,6,7-tetrahydro-1H-imidazo[4,5-c]pyridine-2-carboxamido)-[1,1′-biphenyl]-3-yl)carbamoyl)-1-(methyl-d3)-1,4,6,7-tetrahydro-5H-imidazo[4,5-c]pyridin-5-yl)ethyl)bicyclo[2.2.1]heptane-1-carboxylic acid] | 1.02 nM
9 | [2H]C([2H])([2H])OCC12CCC(CCN3CCc4c(nc(C(=O)Nc5cccc(-c6cccc(NC(=O)c7nc8c(n7C([2H])([2H])[2H])CCN(CCC79CCC(C(=O)O)(CC7)C9)C8)c6C)c5Cl)n4C([2H])([2H])[2H])C3)(CC1)C2 [Compound I-11, 4-(2-(2-((2′-chloro-3′-(5-(2-(4-((methoxy-d3)methyl)bicyclo[2.2.1]heptane-1-yl)ethyl)-1-(methyl-d3)-4,5,6,7-tetrahydro-1H-imidazo[4,5-c]pyridine-2-carboxamido)-2-methyl-[1,1′-biphenyl]-3-yl)carbamoyl)-1-(methyl-d3)-1,4,6,7-tetrahydro-5H-imidazo[4,5-c]pyridin-5-yl)ethyl)bicyclo[2.2.1]heptane-1-carboxylic acid] | 4.21 nM
